{
  "source": "paper PMC3769177",
  "about": "(Bioorganic & medicinal chemistry letters, 2013)",
  "test_system": "RD (embryonal) rhabdomyosarcoma cell line",
  "test": "CellTiter-Glo Luminescent Cell Viability Assay, RD cells",
  "format": "cell-based",
  "settings": "48 hours",
  "data": [
    {"smiles": "CN1CCN(CCOc2cc(OC3CCOCC3)c3c(Nc4c(Cl)ccc5c4OCO5)ncnc3c2)CC1", "note": "[Saracatinib]", "values": [
      {"measurement": "IC50[RD], inhibition of cell survival", "result": "did not reach the IC50"}
    ]}
  ]
}
